Measured values: paper PMC10762035, “Molecular basis of human trace amine-associated receptor 1 activation” (Nature Communications, 2024)
Changes are numbered by the printed parent chain. Values joined by “and” are separate entries in the source; they are usually repeats but may differ in a detail not shown here. Identical values can stand only once.

Experiments:
Assay type in all cases: cell-based
hTA1 = target: T1, hTA1 (Homo sapiens, UniProt Q96RJ0); assay: GloSensor cAMP accumulation assay, concentration response, wild-type hTA1 in transfected HEK293T cells;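 further: luminescence read after 30 min compound exposure at room temperature in cells preloaded with D-Luciferin, reflecting Gs-driven cAMP rise, efficacy scaled to the maximal β-PEA response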
T1 construct: expressed in transfected cells; host or cells: HEK293T
T1 sequence (Q96RJ0 1-339): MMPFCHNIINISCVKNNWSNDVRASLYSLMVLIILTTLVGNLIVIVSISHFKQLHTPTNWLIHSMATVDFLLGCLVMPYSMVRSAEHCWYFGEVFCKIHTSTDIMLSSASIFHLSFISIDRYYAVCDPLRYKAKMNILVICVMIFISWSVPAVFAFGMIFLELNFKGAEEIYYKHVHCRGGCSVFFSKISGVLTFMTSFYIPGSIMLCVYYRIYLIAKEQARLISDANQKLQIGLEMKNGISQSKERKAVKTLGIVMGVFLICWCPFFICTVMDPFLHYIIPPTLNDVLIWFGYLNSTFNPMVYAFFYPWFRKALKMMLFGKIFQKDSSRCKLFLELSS

hTA1 C88S = target: T2, hTA1 C88S (Homo sapiens, UniProt Q96RJ0, C88S); assay: GloSensor cAMP accumulation assay, C88S mutant; conditions: C88S
T2 construct: expressed in transfected cells; host or cells: HEK293T
T2 sequence (Q96RJ0 1-339 C88S): T1 sequence (Q96RJ0 1-339) with C88S

hTA1 C88/178S = target: T3, hTA1 C88/178S (Homo sapiens, UniProt Q96RJ0, C178S/C88S); assay: GloSensor cAMP accumulation assay, C88S/C178S double mutant; conditions: for Normalized Luminescence Counts (N=2): log[Compound], single replicate values
T3 construct: expressed in transfected cells; host or cells: HEK293T
T3 sequence (Q96RJ0 1-339 C88S/C178S): T1 sequence (Q96RJ0 1-339) with C88S, C178S

hTA1 T271A = target: T4, hTA1 T271A (Homo sapiens, UniProt Q96RJ0, T271A); assay: GloSensor cAMP accumulation assay, T271A mutant
T4 construct: expressed in transfected cells; host or cells: HEK293T
T4 sequence (Q96RJ0 1-339 T271A): T1 sequence (Q96RJ0 1-339) with T271A

[1] = C88S, C178S, each row is one independent experiment, 3 replicates

Cc1c(F)cccc1[C@H]1COC(N)=N1 [Ro5263397]
pEC50 values, Avg (hTA1; WT hTA1, average of the two experiments, Figure 2B source data): 8.831 | pEC50 values, Mean (hTA1; WT hTA1, each line an independent experiment, 3 replicates, Figure 2B source data): 8.992 and 8.671 | Emax values, Mean (hTA1; WT hTA1, β-PEA = 100, each line an independent experiment, 3 replicates): 87.687 and 85.7197 | Emax values, Avg (hTA1; WT, average of the experiments, β-PEA = 100): 86.7 | Emax values, Avg (hTA1; WT, average of the two experiments): 86.7 | Emax values, Mean (hTA1; WT, mean of each independent experiment (3 replicates), β-PEA = 100): 87.687 and 85.7197 | Emax values, Mean (hTA1; WT, single experiments (3 replicates each), β-PEA = 100): 87.687 and 85.7197 | pEC50 ± SEM (hTA1; wt hTA1, HEK293T, n=3): 8.83 ± 0.09 | EC50 (hTA1; wt hTA1, HEK293T, n=3, read-out: EC50): 1.47 nM and 1.48 nM | Emax (hTA1; wt hTA1, relative to β-PEA): 86.7% | Emax values (hTA1 C88S; Mean of fit per experiment): 109.361 and 91.1412 | Span ± SEM (Emax normalized to β-PEA) (hTA1 C88S; n=2): 100.25 ± 9.11 | pEC50 ± SEM (hTA1 C88S; n=2): 8.78 ± 0.06 | EC50 (hTA1 C88S; n=2, read-out: EC50): 1.64 nM | Emax (hTA1 C88S; relative to β-PEA): 100.3% | Span ± SEM (Emax normalized to β-PEA) (hTA1 C88/178S; C88/178S, n=2): 98.55 ± 7.35 | pEC50 ± SEM (hTA1 C88/178S; C88/178S, n=2): 8.59 ± 0.09 | EC50 (hTA1 C88/178S; C88/178S, n=2, read-out: EC50): 2.55 nM | pEC50 values, Mean (hTA1 C88/178S; [1]): 8.403 and 8.782 | ΔEmax values (each mutant value - WT average), Mean (hTA1 C88/178S; [1]): 4.495 and 19.1933 | ΔpEC50 values (each mutant value - WT average), Mean (hTA1 C88/178S; [1]): -0.428 and -0.04873 | Normalized Luminescence Counts (N=2) (hTA1 C88/178S; C88S, C178S, M = -5): 100.242 and 99.2245 and 97.2457 and 143.648 and 172.345 and 97.883 | Normalized Luminescence Counts (N=2) (hTA1 C88/178S; C88S, C178S, M = -5.522): 90.9136 and 85.0903 and 89.8394 and 123.862 and 148.33 and 92.2945 | Normalized Luminescence Counts (N=2) (hTA1 C88/178S; C88S, C178S, M = -6): 90.1221 and 88.8217 and 95.4931 and 103.622 and 111.174 and 99.9975 | Normalized Luminescence Counts (N=2) (hTA1 C88/178S; C88S, C178S, M = -6.522): 99.5072 and 94.7581 and 94.2493 and 122.049 and 117.367 and 101.508 | Normalized Luminescence Counts (N=2) (hTA1 C88/178S; C88S, C178S, M = -7): 91.3094 and 97.4719 and 93.062 and 116.159 and 110.872 and 102.263 | Normalized Luminescence Counts (N=2) (hTA1 C88/178S; C88S, C178S, M = -7.522): 83.1115 and 82.2069 and 77.6274 and 88.2165 and 117.82 and 93.3518 | Normalized Luminescence Counts (N=2) (hTA1 C88/178S; C88S, C178S, M = -8): 58.8572 and 57.8961 and 57.8396 and 93.8049 and 106.945 and 88.8206 | Normalized Luminescence Counts (N=2) (hTA1 C88/178S; C88S, C178S, M = -8.522): 53.4862 and 36.4686 and 47.8325 and 84.7426 and 92.7477 and 67.222 | Normalized Luminescence Counts (N=2) (hTA1 C88/178S; C88S, C178S, M = -9): 25.2178 and 28.61 and 25.7832 and 45.3213 and 51.816 and 46.9828 | Normalized Luminescence Counts (N=2) (hTA1 C88/178S; C88S, C178S, M = -9.522): 8.822 and 11.8186 and 9.84 and 21.1551 and 21.4571 and 31.5768 | Normalized Luminescence Counts (N=2) (hTA1 C88/178S; C88S, C178S, M = -10): 5.826 and 5.4299 (2×) and 35.5038 (2×) and 37.3163 | Normalized Luminescence Counts (N=2) (hTA1 C88/178S; C88S, C178S, M = -10.522): 1.755 and 2.038 and 3.395 and 3.6345 and 2.124 and 3.483 | Normalized Luminescence Counts (N=2) (hTA1 C88/178S; C88S, C178S, M = -11): 2.49 and 1.529 and 1.585 and 16.4728 and 32.9361 and 27.0456 | Normalized Luminescence Counts (N=2) (hTA1 C88/178S; C88S, C178S, M = -11.522): 0.5677 and 1.529 and 0.7373 and 0.9158 and 1.369 and 1.973 | Normalized Luminescence Counts (N=2) (hTA1 C88/178S; C88S, C178S, M = -12): 0.7939 and 1.472 and 1.1331 and 4.692 and 7.713 and 6.504 | Normalized Luminescence Counts (N=2) (hTA1 C88/178S; C88S, C178S, M = -12.522): 1.698 and 0.6243 and 0.7373 and -0.4436 and 0.7648 and -1.803 | Emax values, Mean (hTA1 C88/178S; C88S, C178S, normalized (β-PEA = 100), each row is one independent experiment, 3 replicates): 91.1984 and 105.897 | ΔpEC50 values (each mutant value - WT average), Mean (hTA1 T271A; T271A mutant minus WT average, Figure 5B): -0.5707 and -0.4899 | pEC50 values, Mean (hTA1 T271A; T271A mutant, Figure 5B, each row one independent experiment (3 replicates)): 8.26 and 8.341 | Emax values, Mean (hTA1 T271A; T271A mutant, Figure 5B, β-PEA = 100, each row one independent experiment (3 replicates)): 76.005 and 87.3949 | Span ± SEM (Emax normalized to β-PEA) (hTA1 T271A; T271A, n=2): 81.70 ± 5.69 | pEC50 ± SEM (hTA1 T271A; T271A, n=2): 8.3 ± 0.07 | EC50 (hTA1 T271A; T271A, n=2, read-out: EC50): 5 nM
